Reference: patent US8172395B2, “Medical devices having antimicrobial coatings thereon” (priority 2002, dated 2012)
Where no end group is shown, it is not given here.

Legend:
[1] = test system: L929 mammalian fibroblasts; assay: Cytotoxicity, USP Elution Test (MEM elution); conditions: 5, 0.5 and 0.05 μg/ml; 25% test solution in medium; L929 cells examined after 48 hours
Description: Cytotoxicity of Cecropin A melittin hybrid is evaluated according to the USP Elution Test (“Biological Reactivity Tests, In-Vitro: Elution Test”, The United States Pharmacopeial Convention, Inc.). Cell cultures, L929 mammalian fibroblasts (ATCC cell line CCL1, NCTC clone 929), are grown to a near confluent monolayer in 6 well plates (individual wells are 35 mm diameter). […] The serum-supplemented cell culture medium is prepared by mixing 1000 mL Eagle's sterile minimum essential medium (MEM), 100 mL serum, 10 ml L-glutamine solution and antibiotic-antimycotic solution.

S. aureus #6538 = assay: MIC of peptides in Mueller Hinton broth, microtiter plates; type: cell-based, Staphylococcus aureus; conditions: 37° C., 24 h; tested 1-20 μg/ml
Description: (§1) Two (2) peptides, Cecropin P1 and Cecropin A-melittin hybrid, from American Peptides Company, Inc. are tested against strains of Pseudomnas aeruginosa GSU # 3 (corneal isolate) and # 9027 (a Gram negative organism), Staphylococcus aureus #6538, and Staphylococcus epidermidis # 17917. The first two strains are Gram negative organisms. The last two strains are Gram positive organisms. These organisms are chosen because they are the most common etiological agents causing infection in the eye. The peptides are kept at −70° C. until they are ready to be used. The peptide concentrations tested are 20, 16, 8, 4, 2 and 1 μg/ml in Delbeco's Phosphate Buffered Saline (PBS).
(§2) The bacteria are harvested, washed twice and adjusted to an O.D. of 10^8 cells/ml. Cells then are serially diluted and adjusted to about 5×10^5 cfu/ml. The cells are inoculated into microtiter plates containing serially decreasing peptide concentrations. The inoculum for the bacterial strains are suspended in Mueller Hinton broth, and the final volume in each well is 200 μl. The microtiter plates are incubated at 37° C. for 24 h. The growth is checked as optical density spectrophotometrically in a microtiter plate reader. The O.D. is compared to the blank and to the growth well to determine the MIC. […]

S. epidermidis #17917 = assay: as above; type: cell-based, Staphylococcus epidermidis; conditions: 37° C., 24 h; tested 1-20 μg/ml
Description: as §1, §2

[2] = test system: P. aeruginosa (PA) (ATCC# 19660); assay: Mouse organ culture model: adherence of P. aeruginosa to scarified mouse cornea; conditions: PA pre-incubated 1 h, PBS control 42.4
Description: Using the mouse organ culture model, this assay assesses the ability of a compound to inhibit the binding of P. aeruginosa to scarified eyes. Cecropin A melittin hybrid has been tested at three concentrations: 10, 2, and 0.5 μg/ml.
The solutions are tested for their ability to prevent adherence of P. aeruginosa (PA) (ATCC# 19660) to scarified mouse cornea. For these studies 1×10^7 cfu of PA is combined with each of the solutions at each concentration and incubated for 1 h at room temperature. In addition, 1×10^7 cfu of PA are incubated in PBS for 1 h at room temperature as a control. Following this incubation period, the PA are washed twice to remove the peptide solutions. For each washing step, the cultures are centrifuged at 6,000 rpm for 10 min and pellets are resuspended in 1.0 ml of PBS.
Mouse corneas are scarified under a stereoscopic microscope at 40× magnification. The corneal surface of the eyes is incised with three parallel one-mm wounds. The eyes are then enucleated and placed into sterile culture wells containing 2 ml of MEM.
A 5.0 μl aliquot of each bacterial suspension is delivered onto the surface of the cornea. Eyes are routinely incubated in vitro for 1 h at 37° C. at 95% O2 (5% CO2) after bacterial application. Scanning electron microscopy (SEM) is used to quantitate adherent bacteria.
To determine the efficacy of the peptide, the numbers of bacteria at each concentration is compared from 2 separate identical experiments to the PBS control, p≦0.05 is considered significant. There is a slight reduction at 0.5 μg, but significant difference in adherence at 2 and 10 μg from the control. The values for the bacteria adhered at 0.5 μg is 42.4 and 32.6 for the PBS control and the peptide solution respectively. At 2 μg, it is 42.4 and 15.8 for the PBS control and the peptide solution respectively. At 10 μg, it is 42.4 and 5.8 for the PBS control and the peptide solution respectively.

[3] = test system: P. aeruginosa GSU #3 (corneal isolate); type: cell-based, Pseudomnas aeruginosa; conditions: 37° C., 24 h; tested 1-20 μg/ml
Description: as §1, §2

Row | Compound | Cytotoxicity (MEM elution test) [1] | Minimal inhibition concentration, S. aureus #6538 (S. aureus #6538) [μg/ml^1 μg/mL] | Minimal inhibition concentration, S. epidermidis #17917 (S. epidermidis #17917) [μg/ml^1 μg/mL] | bacteria adhered (SEM count) ([2]; 0.5 μg/ml peptide) | bacteria adhered (SEM count) ([2]; 2 μg/ml peptide) | bacteria adhered (SEM count) ([2]; 10 μg/ml peptide) | Minimal inhibition concentration, P. aeruginosa GSU #3 [3] [μg/ml^1 μg/mL]
1 | CC[C@H](C)[C@H](N)C(=O)N[C@@H](CC(C)C)C(=O)N1CCC[C@H]1C(=O)N[C@@H](Cc1c[nH]c2ccccc12)C(=O)N[C@@H](CCCCN)C(=O)N[C@@H](Cc1c[nH]c2ccccc12)C(=O)N1CCC[C@H]1C(=O)N[C@@H](Cc1c[nH]c2ccccc12)C(=O)N[C@@H](Cc1c[nH]c2ccccc12)C(=O)N1CCC[C@H]1C(=O)N[C@@H](Cc1c[nH]c2ccccc12)C(=O)N[C@@H](CCCN=C(N)N)C(=O)N[C@@H](CCCN=C(N)N)C(N)=O [Indolicidin] | non-cytotoxic |  |  |  |  |  | 
2 | SWLSKTAKKLENSAKKRISEGIAIAIQGGPR [Cecropin P1] |  | >20 | >20 |  |  |  | 
3 | KWKLFKKIGAVLKVL-NH2 (C-terminus assumed) [Cecropin A Melittin Hybrid] | non-cytotoxic |  |  | 32.6 | 15.8 | 5.8 | >20
